Consider 40 compounds from patent US20040171073A1, “Compounds for modulation of cholesterol transport” (Massachusetts Institute of Technology, priority 2002, published 2004).

This assay concerns the target T1, murine SR-BI (Mus musculus, UniProt Q61009).
T1 construct: expressed in transfected cells; host or cells: ldlA-7 (LDL receptor deficient Chinese hamster ovary cells)
T1 sequence (Q61009 1-509): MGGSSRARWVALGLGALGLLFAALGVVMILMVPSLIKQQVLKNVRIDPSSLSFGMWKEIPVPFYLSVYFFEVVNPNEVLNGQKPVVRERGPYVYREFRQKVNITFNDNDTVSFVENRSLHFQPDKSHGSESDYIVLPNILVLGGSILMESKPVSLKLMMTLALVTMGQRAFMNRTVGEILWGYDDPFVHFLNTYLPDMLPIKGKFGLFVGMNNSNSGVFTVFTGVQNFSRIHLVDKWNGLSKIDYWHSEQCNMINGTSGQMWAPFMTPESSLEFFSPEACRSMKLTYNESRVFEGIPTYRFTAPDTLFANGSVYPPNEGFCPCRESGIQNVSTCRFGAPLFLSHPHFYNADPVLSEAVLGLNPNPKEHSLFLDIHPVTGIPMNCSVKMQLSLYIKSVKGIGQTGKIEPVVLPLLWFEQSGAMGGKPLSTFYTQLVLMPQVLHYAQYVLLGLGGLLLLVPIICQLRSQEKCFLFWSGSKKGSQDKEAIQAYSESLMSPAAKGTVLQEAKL
The assay can be described thus: Uptake of DiI from DiI-HDL by ldlA[mSR-BI] cells (high throughput screen and concentration dependence). The format is cell-based.

[1] abbreviates: DiI uptake from DiI-HDL, compounds at nominal 10 micromolar, ldlA[mSR-BI] cells.

As for `COc1ccc(NC(=O)Oc2cc(C(C)(C)C)cc(C(C)(C)C)c2)cc1Cl` [MIT 9952-182], the “ENDOHDL Test 1” value came out at 0.71 and the “ENDOHDL Test 2” value was determined as 0.41.
In the same order, the values of `O=C(Cc1ccccc1)N/N=C/c1cccn1-c1ccc([N+](=O)[O-])cc1` [MIT 9952-123] are 0.59 and 0.64.
`O=C(NC(NC(=S)Nc1ccc2ccccc2c1)C(Cl)(Cl)Cl)c1cccc([N+](=O)[O-])c1` (centres unmarked) [MIT 9952-216]: the “ENDOHDL Test 1” value is given as 0.54 and the “ENDOHDL Test 2” value was 0.58.
Take `O=C(O)CSC1CCCC/C1=N\Nc1ccc([N+](=O)[O-])cc1[N+](=O)[O-]` (centres unmarked) [MIT 9952-84]: the “ENDOHDL Test 1” value is recorded as 0.74 and the “ENDOHDL Test 2” value is on record as 0.66.
In the same order, the values of `CSc1sc(SC)c(C[n+]2ccccc2)c1C[n+]1ccccc1.[I-].[I-]` [MIT 9952-85] are 0.56 and 0.68.
Turning to `Cl.NCCc1nc2ccccc2[nH]1` [MIT 9952-25], the “ENDOHDL Test 1” value was found to be 1.21 and the “ENDOHDL Test 2” value is recorded as 1.69.
In the same order, the values of `O=C(Nc1ccc2c(c1)S(=O)(=O)c1cc(NC(=O)c3cccc4ccccc34)ccc1-2)c1cccc2ccccc12` [MIT 9952-229] are 0.58 and 0.58.
In the same order, the values of `COc1cccc(/C=N/Nc2ccc([N+](=O)[O-])cc2)c1` [MIT 9952-240] are 0.64 and 0.71.
For `O=C(COc1ccc(Cl)cc1)N/N=C/c1ccc(Cl)cc1` [MIT 9952-31], the “ENDOHDL Test 1” value was 1.33 and the “ENDOHDL Test 2” value is 1.17.
In the same order, the values of `CC(C)C(=O)NC(NC(=S)Nc1cccc(C(=O)Cl)c1)C(Cl)(Cl)Cl` (centres unmarked) [MIT 9952-117] are 1.26 and 1.58.
In the same order, the values of `O=C1C(=O)c2ccc(Oc3ccc([N+](=O)[O-])cc3)c3cccc1c23` [MIT 9952-95] are 0.79 and 0.73.
In the same order, the values of `CCS(=O)(=O)C(=C(Nc1ccc(OC)cc1)Nc1ccc(OC)cc1)S(=O)(=O)CC` [MIT 9952-57] are 1.13 and 1.25.
On to `COc1ccc2nc(C(=O)[O-])sc2c1.[Na+]` [MIT 9952-14], for which the “ENDOHDL Test 1” value was 1.24 and the “ENDOHDL Test 2” value is on record as 1.21.
In the same order, the values of `CCc1c2cccn2cc(C)[n+]1C.[I-]` [MIT 9952-177] are 0.68 and 0.49.
In the same order, the values of `CCCCN1CCC(Cl)(c2ccccc2)C(C(=O)c2ccccc2)C1` (centres unmarked) [MIT 9952-26] are 1.28 and 1.32.
In the same order, the values of `O=C(Nc1ccc(Cl)cc1C(=O)c1ccc(Cl)cc1)c1cc(Cl)ccc1NS(=O)(=O)c1ccc(Cl)cc1` [MIT 9952-45] are 0.44 and 0.46.
With `Cc1cccc(N2C(=O)CN(C3CCOCC3)C2=O)c1` [MIT 9952-2], the “ENDOHDL Test 1” value is 1.34 and the “ENDOHDL Test 2” value was 1.2.
As for `CCOC(=O)c1c(C)n(-c2ccccc2)c2ccc(NS(=O)(=O)c3ccccc3)cc12` [MIT 9952-71], the “ENDOHDL Test 1” value is recorded as 0.62 and the “ENDOHDL Test 2” value is given as 0.55.
In the same order, the values of `O=S(=O)([O-])C(F)(F)F.O=[N+]([O-])c1ccc([I+]c2ccc(F)cc2)cc1` [MIT 9952-241] are 0.48 and 0.52.
On to `C=C(N/N=C(\C)c1ccccc1C(=O)O)c1ccccc1` [MIT 9952-56], for which the “ENDOHDL Test 1” value is 1.26 and the “ENDOHDL Test 2” value was found to be 1.26.
Regarding `C/C(=N\NC(=O)COc1ccc(I)cc1)c1cccs1` [MIT 9952-254], the “ENDOHDL Test 1” value is on record as 0.69 and the “ENDOHDL Test 2” value came out at 1.01.
On to `O=C(N/N=C/c1ccc(O)cc1)C1CC1(c1ccccc1)c1ccccc1` (centres unmarked) [MIT 9952-87], for which the “ENDOHDL Test 1” value worked out at 0.67 and the “ENDOHDL Test 2” value turned out to be 0.67.
With `O=C(Nc1ccc(-c2nc3cc(NC(=O)c4ccccc4[N+](=O)[O-])ccc3o2)cc1)c1ccccc1[N+](=O)[O-]` [MIT 9952-234], the “ENDOHDL Test 1” value is reported as 0.58 and the “ENDOHDL Test 2” value was 0.54.
In the same order, the values of `COC(=O)Nc1cc([N+](=O)[O-])cc([N+](=O)[O-])c1Br` [MIT 9952-79] are 0.61 and 0.63.
Regarding `O=C(Nc1cccc(C(F)(F)F)c1)c1cccc(C(=O)Nc2cccc(C(F)(F)F)c2)n1` [MIT 9952-189], the “ENDOHDL Test 1” value worked out at 0.56 and the “ENDOHDL Test 2” value is reported as 0.58.
With `Cc1ccc(NC(=O)c2ccc([N+](=O)[O-])c(C)c2)cc1Cl` [MIT 9952-224], the “ENDOHDL Test 1” value is given as 0.6 and the “ENDOHDL Test 2” value came out at 0.5.
With `CCCCN1CCC(O)(c2ccccc2)C(C(=O)c2ccccc2)C1` (centres unmarked) [MIT 9952-142], the “ENDOHDL Test 1” value worked out at 1.28 and the “ENDOHDL Test 2” value stood at 1.32.
`O=C(Nc1nc(-c2ccccc2)cs1)Nc1ccc(Cl)cc1Cl` [MIT 9952-232]: the “ENDOHDL Test 1” value turned out to be 0.61 and the “ENDOHDL Test 2” value is 0.56.
In the same order, the values of `CC(C)(C)c1ccc(C(=O)Nc2cccc(NC(=O)c3cccc([N+](=O)[O-])c3)c2)cc1` [MIT 9952-214] are 0.63 and 0.35.
Turning to `Cc1cccc(C(=O)Nc2cccc(-c3nc4c(C)cccc4o3)c2)c1` [MIT 9952-236], the “ENDOHDL Test 1” value was determined as 0.57 and the “ENDOHDL Test 2” value is 0.38.
`C=CC/C=C/c1c(NC(=O)c2ccccc2)sc2c1CCCC2` [MIT 9952-294]: under setting [1], the “ENDOHDL Test 1” value is 0.61 and the “ENDOHDL Test 2” value was 0.56.
For `CCCCOCCC1CCC/C1=N\NC(N)=S` (centres unmarked) [MIT 9952-249], the “ENDOHDL Test 1” value was found to be 0.7 and the “ENDOHDL Test 2” value was found to be 0.57.
For `CCOC(C(=O)OC(C)CN(C)C)(c1ccccc1)c1ccccc1.Cl` (centres unmarked) [MIT 9952-128], the “ENDOHDL Test 1” value turned out to be 1.23 and the “ENDOHDL Test 2” value turned out to be 1.36.
In the same order, the values of `Cc1[nH]c2ccccc2c1-c1c2ccccc2nc2ccccc12` [MIT 9952-183] are 0.59 and 0.65.
In the same order, the values of `COc1ccccc1NC(=O)Nc1ccc2ccccc2c1` [MIT 9952-149] are 0.62 and 0.6.
In the same order, the values of `O=C(CSC1=NCCN1)Nc1ccccc1` [MIT 9952-67] are 0.55 and 0.54.
As to `CCN(CC)CC(=O)Nc1ccc2c(c1)Nc1ccccc1CC2.Cl` [MIT 9952-158], the “ENDOHDL Test 1” value stood at 0.42 and the “ENDOHDL Test 2” value is listed as 0.39.
In the same order, the values of `C=CCc1c(C)nc(-c2ccccc2)nc1Nc1ccc([N+](=O)[O-])cc1` [MIT 9952-227] are 0.58 and 0.53.
In the same order, the values of `Cc1c([N+](=O)[O-])cc(C(=O)Nc2cccc(NC(=O)c3ccccc3)c2)cc1[N+](=O)[O-]` [MIT 9952-235] are 0.62 and 0.33.
With `Cc1c([N+](=O)[O-])cc(C(=O)Nc2cccc(-c3nc4ccccc4o3)c2)cc1[N+](=O)[O-]` [MIT 9952-210], the “ENDOHDL Test 1” value is reported as 0.59 and the “ENDOHDL Test 2” value came out at 0.56.
